# Laboratory results published in US20220196636A1, “GRID OF RESPONSES INDICATING DRUG SENSITIVITY” (The Johns Hopkins University, priority 2019, published 2022).
# Columns and labels:
# Assay type in all cases: cell-based, human
# [1] = tested on: engineered heart slices (EHS) of hiPSC-CMs; experiment: Optical mapping of action potential duration and conduction velocity, EHS; details: for change in APD80 compared to baseline, d201 EHS / change in conduction velocity compared to baseline, d201 EHS: paced at 1900 ms, n=4
# Experimental: (§1) Each EHS was placed in Tyrode's solution and stained with 10 μM di-4-ANEPPS for 10 min at 37° C. The EHS was rinsed several times in a dish with warm Tyrode's solution, and then immersed in Tyrode's solution containing 10 μM blebbistatin to suppress contraction. The dish was placed on a 37° C. heated stage for the duration of the experiment. At least 5 min after adding blebbistatin, the EHS was stimulated with a point electrode and optically mapped using a CMOS camera (MiCAM Ultima-L, SciMedia). The EHS was paced by 5 ms monophasic rectangular pulses at stepwise increasing rates starting at 0.5 Hz. For some samples, E-4031, chromanol 293B, nifedipine, Bay K 8644, BaCl2, or cromakalim was added for 7 min prior to mapping. Mapping data were analyzed using custom MATLAB scripts (details provided in Supplemental Information). AP durations at 30% and 80% repolarization (APD30 and APD80) were calculated from the optical voltage signal. For drug studies, APD and conduction velocity (CV) measurements at each concentration were plotted as a percentage of APD and CV measured at baseline, with no drug present.
# (§2) EHS were stained with 10 μM of the voltage-sensitive dye di-4-ANEPPS (Sigma-Aldrich Corp.) in Tyrode's solution for 10 minutes at 37° C. Afterwards, EHS were rinsed twice with Tyrode's and placed in a 35-mm dish filled with Tyrode's and 10 μM of the contraction inhibitor blebbistatin (Sigma-Aldrich Corp.). This dish was set on a stage heated to 37° C. and allowed to equilibrate for at least 5 minutes. Samples were point paced with at least 30 stimulus pulses at a range of cycle lengths, starting from 2000 ms and decreasing until the they lost capture. EHS were optically mapped during pacing using a 100×100 pixel CMOS camera (MiCAM Ultima-L, SciMedia, Costa Mesa, Calif.).
# (§3) During drug studies, recordings at a range of pacing rates were taken at baseline (prior to the addition of drug) before replacing the solution in the dish with Tyrode's supplemented with blebbistatin and the lowest dose of drug studied. The sample was paced at the same range of rates and mapped 7 minutes after the addition of drug. Afterwards, the bath solution was replaced with Tyrode's with blebbistatin and the next lowest drug dose and the procedure repeated. This method was applied for all doses of each drug and, except where noted in the figures, only one drug was tested per sample. In these studies, we superfused EHS or monolayers with the following drugs: E-4031 (Tocris Bioscience), BaCl2 (Sigma-Aldrich Corp.), Chromanol 293B (Tocris Bioscience), Nifedipine (Tocris Bioscience), Bay K 8644 (Tocris Bioscience), and Cromakalim (Sigma-Aldrich Corp.).
# (§4) Optical mapping data was analyzed using custom MATLAB scripts. Recordings at each pixel were de-noised using a previously described method (Little and Jones, 2010) to regulate total signal variance and convolved with a 5×5 spatial Gaussian filter. Activation times were defined as the maximum of the derivative of membrane potential (dV/dt), which was calculated as previously described (Chartrand, 2011). Histograms of local conduction velocities for each EHS were fitted to a Gaussian curve and the mean of the curve was defined as the average conduction velocity (CV). To determine longitudinal and transverse CVs, a bimodal Gaussian curve was fitted to the local CVs. Action potential durations at 30 and 80 percent repolarization (APD30 and APD80) were determined for all local traces over the recording region for each EHS and fit with Gaussian curves to determine the mean value for each EHS, as described for CV measurements. For drug studies, average APD and CV measurements for each dose were normalized by average APD and CV measurements at baseline (without the drug).
# [2] = tested on: engineered heart slices (EHS) of hiPSC-CMs; experiment: GRIDS assay (pace-capture and spontaneous activity by optical mapping), EHS
# Experimental: as §1
# (§5) To test the responsiveness of EHS to ion channel modulators, an assay referred to herein as “GRIDS” (grid of responses indicating drug sensitivity) was developed that characterizes the ability of a cardiac preparation to respond to pacing when exposed to a range of drug concentrations. This assay was used to compare EHS to age-matched monolayer cultures. APs of EHS and monolayers were evaluated at each drug concentration in the absence of pacing and when subjected to electrical stimulation at PCLs ranging from 2000 ms to 500 ms. By incorporating a range of pacing rates, GRIDS manifests the distinct sensitivities of different ion currents (Ravens and Wettwer, 1998) and their rate dependencies, and provides a “fingerprint” of drug sensitivity. Several types of responses were observed: no spontaneous activity (FIG. 6A,i), spontaneously generated APs when no pacing was applied (FIG. 6A,ii), extra APs in between pacing stimuli (FIG. 6A, iii), one AP generated for each pacing stimulus—i.e., 1:1 pace-capture (FIG. 6A, iv), and failure to maintain 1:1 pace-capture (lost beats) (FIG. 6A,v).
# as §2, §3
# (§6) Optical mapping data was analyzed using custom MATLAB scripts. […]
# [3] = tested on: hiPSC-CM monolayers; experiment: GRIDS assay (pace-capture and spontaneous activity by optical mapping), monolayers
# Experimental: as §1, §5, §2, §3, §6
# [4] = tested on: hiPSC-CM monolayers; experiment: Optical mapping of action potential duration and conduction velocity, monolayers
# Experimental: as §1, §2, §3, §4
# [5] = tested on: engineered heart slices (EHS) of hiPSC-CMs; experiment: Contraction measurements of EHS (change in EHS area during pacing)
# Experimental: WT d24-78 EHS were placed in a 35-mm tissue culture mm dish filled with Tyrode's solution and maintained at 31±0.1° C. for the duration of the experiment. A section of each EHS was detached from the edge of the coverslip so that it could move freely. Each EHS was paced at 1 Hz, 1.5 Hz, and 2 Hz while the free region was imaged with a CCD camera. A custom MATLAB script was used to segment the image and calculate the change in EHS area over time, which was used as a measure of contraction.
# Tyrode's solution was prepared by combining 1.8 mM CaCl2, 5 mM glucose, 5 mM HEPES, 1 mM MgCl2, 5.4 mM KCl, 135 mM NaCl, and 0.33 mM NaH2PO4 in ddH2O and adding NaOH to raise the pH to 7.4 (all chemicals from Sigma-Aldrich Corp.). EHS were placed in a 35-mm dish filled with Tyrode's solution and set on a stage heated to 31±0.1° C. (Warner Instruments, Hamden, Conn.). A section of each EHS was unhooked and allowed to move freely throughout the duration of the experiment. The EHS were allowed to equilibrate in Tyrode's for 5 minutes before the start of pacing with a point electrode. Each sample was paced for 1 minute at each of 3 cycle lengths (1000 ms, 666 ms, 500 ms), while the freely moving region was kept approximately vertical in the field of view and imaged at 4× magnification using a CCD camera (Swiftcam, Swift, Schertz, Tex.) at a rate of 14-17 fps with 320×256 pixel resolution. Samples also were imaged during pacing at 666 ms after the application of 1 μM isoproterenol (Sigma-Aldrich Corp.) for 2 minutes and after washout of the drug for 2 minutes. A pacing cycle length shorter than 1000 ms was applied in the presence of isoproterenol to overcome the increase in spontaneous rate in response to the drug. […] From this, the area of EHS was calculated in each image. The change in area from a fully relaxed state (reference frame, designated as 100% EHS area) was determined for each frame in the time series. […]
# [6] = tested on: monolayers of hiPSC-CMs; experiment: GRIDS analysis applied to video-based contraction data, monolayers; details: n=6
# Experimental: GRIDS analysis was applied to contraction data collected from monolayers of hiPSC-CMs. Each monolayer (cultured on a plastic coverslip) was placed in a 35-mm dish filled with cell culture medium and set on the stage of a microscope (LS720, Etaluma) fitted within a cell culture incubator. Monolayers were superfused with increasing concentrations of E-4031 (FIG. 15) or isoproterenol (FIG. 16), ranging from 0 to 10 μM, and paced at decreasing cycle lengths (increasing rates), ranging from 2000 ms to 500 ms, using a field electrode. At each drug dose and paced cycle length, a 30-second video of the contracting cells was recorded at a rate of 20-30 frames per second. The cellular contraction was quantified by subtracting one reference frame of video from all other frames, summing the pixels in each frame after subtraction, plotting the summed signal over time, and detecting the peaks in the signal.
# [7] = additional 1 μM Bay K 8644 after 1 μM cromakalim
# [8] = chromanol 293B, all concentrations tested
# [9] = chromanol 293B 1 μM to 60 μM, PCL 1000 ms
# [10] = BaCl2 up to 150 μM, PCL 1000 ms, concentration-dependent
# [11] = E-4031 50 nM to 10 μM, PCL 1500 ms, concentration-dependent
compound,measurement,setting,value
COC(=O)C1=C(C)NC(C)=C([N+](=O)[O-])C1c1ccccc1C(F)(F)F (centres unmarked) [Bay K 8644],"change in CV, EHS","[1]; Bay K 8644 0.3 μM to 100 μM, concentration-dependent, n=3",decreased CV
same,"change in APD, EHS","[1]; Bay K 8644 0.3 μM to 100 μM, paced at 700 ms, concentration-dependent, n=3",increased APD
same,"maximum capture rate, EHS","[1]; Bay K 8644, n=3",decreased the maximum capture rate
same,"change in APD80 compared to baseline, d201 EHS",[1]; [7],decreased APD80
same,"change in conduction velocity compared to baseline, d201 EHS",[1]; [7],slowed conduction velocity
CCS(=O)(=O)N(C)[C@H]1c2cc(C#N)ccc2OC(C)(C)[C@@H]1O (racemic) [chromanol 293B],"pace-capture (GRIDS), EHS",[2]; [8],could be pace-captured at all PCLs from 2000 ms down to 500 ms
same,"pace-capture (GRIDS), monolayers",[3]; [8],could be pace-captured at all PCLs from 2000 ms down to 500 ms
same,fraction of monolayers exhibiting spontaneous activity when no pacing was applied,"[3]; chromanol 293B, concentrations up to 60 μM","non-zero and constant at all concentrations except for 5 μM, when it was zero, and 60 μM, when all monolayers exhibited spontaneous activity"
same,"change in APD80, EHS",[1]; [9],no effect
same,"change in CV, EHS",[1]; [9],no effect
same,"change in APD80, monolayers",[4]; [9],no effect
same,"change in CV, monolayers",[4]; [9],no effect
[Ba+2].[Cl-].[Cl-] [BaCl2],"pace-capture (GRIDS), EHS","[2]; 1 mM BaCl2, 500 ms PCL",all of the EHS tested lost capture
same,"sensitivity (GRIDS), EHS compared with monolayers",[2]; BaCl2,less sensitive to BaCl2 than monolayers
same,"spontaneous rate, EHS","[2]; BaCl2, no pacing",increased in a concentration-dependent manner
same,"pace-capture (GRIDS), EHS",[2]; all concentrations of BaCl2,could be overdrive paced at 700 ms and 1000 ms PCL for all concentrations
same,"pace-capture (GRIDS), monolayers",[3]; 500 μM BaCl2,could be partially pace-captured only at CLs of 1000 ms and less
same,"spontaneous beating rate, monolayers",[3]; 500 μM BaCl2,up to 1 Hz
same,"pace-capture (GRIDS), monolayers",[3]; 1 mM BaCl2,only a small fraction could be partially pace-captured at a CL of 500 ms
same,"spontaneous beating rate, nearly all monolayers",[3]; 1 mM BaCl2,> 2 Hz
same,"spontaneous rate, monolayers","[3]; BaCl2, no pacing, effect greater in monolayers than in EHS",increased in a concentration-dependent manner
same,"change in APD80, EHS",[1]; [10],increased APD80
same,"change in CV, EHS","[1]; BaCl2 up to 150 μM, PCL 1000 ms, statistically significant",decreased CV
same,"change in APD80, monolayers",[4]; [10],increased APD80
same,"change in CV, monolayers","[4]; BaCl2 up to 150 μM, PCL 1000 ms, did not reach statistical significance",decreased CV
CC(C)NCC(O)c1ccc(O)c(O)c1 (centres unmarked) [isoproterenol],area change during contraction relative to baseline,"[5]; 1 μM isoproterenol, PCL 666 ms (1.5 Hz), n=8",1.5±0.6 fold
same,inotropic response,[5]; EHS,positive inotropic response
same,area change during contraction relative to baseline after washout of the drug,"[5]; after washout of 1 μM isoproterenol, PCL 666 ms, n=8",1.1±0.4 times the baseline value
same,"spontaneous rate from contraction video (GRIDS), monolayers","[6]; isoproterenol 0 to 10 μM, no pacing or 2000 ms pacing",increased the spontaneous rate of the monolayers in a dose-dependent manner
Cc1cccc(CCN2CCC(C(=O)c3ccc(NS(C)(=O)=O)cc3)CC2)n1 [E-4031],"sensitivity of pace-capture (GRIDS), EHS compared with monolayers","[2]; E-4031 greater than 50 nM (tested 1 nM to 10 μM), rapid pacing",lower sensitivity of EHS to E-4031
same,"loss of capture during pacing (GRIDS), monolayers","[3]; E-4031 greater than 50 nM (tested 1 nM to 10 μM), increasingly shorter PCLs",a greater fraction of monolayers than EHS lost capture
same,"change in APD80, EHS",[1]; [11],prolonged APD80
same,"change in CV, EHS",[1]; [11],slowed CV
same,"change in APD80, monolayers",[4]; [11],prolonged APD80
same,"change in CV, monolayers",[4]; [11],slowed CV
same,"pace-capture from contraction video (GRIDS), monolayers","[6]; E-4031 0 to 10 μM, PCL 2000 ms to 500 ms, more pronounced at higher doses",began to lose capture as the pacing rate was increased
CC1(C)Oc2ccc(C#N)cc2C(N2CCCC2=O)C1O (centres unmarked) [cromakalim],"change in APD80 compared to baseline, d201 EHS",[1]; 1 μM cromakalim,decreased APD80
same,"change in conduction velocity compared to baseline, d201 EHS",[1]; 1 μM cromakalim,slowed conduction velocity
